This is an account of results in patent EP0492113A2, “Herbicide resistant AHAS deletion mutants” (priority 1990, dated 1992).

Type in all cases: biochemical
The target in assay [1] is T1, Wild type Arabidopsis AHAS (Arabidopsis thaliana, UniProt P17597).
T1 construct: made in house; host or cells: E. coli MF2000 (no endogenous AHAS), vector pKK233-2; ammonium sulfate fraction of the extract
T1 sequence (P17597 56-670): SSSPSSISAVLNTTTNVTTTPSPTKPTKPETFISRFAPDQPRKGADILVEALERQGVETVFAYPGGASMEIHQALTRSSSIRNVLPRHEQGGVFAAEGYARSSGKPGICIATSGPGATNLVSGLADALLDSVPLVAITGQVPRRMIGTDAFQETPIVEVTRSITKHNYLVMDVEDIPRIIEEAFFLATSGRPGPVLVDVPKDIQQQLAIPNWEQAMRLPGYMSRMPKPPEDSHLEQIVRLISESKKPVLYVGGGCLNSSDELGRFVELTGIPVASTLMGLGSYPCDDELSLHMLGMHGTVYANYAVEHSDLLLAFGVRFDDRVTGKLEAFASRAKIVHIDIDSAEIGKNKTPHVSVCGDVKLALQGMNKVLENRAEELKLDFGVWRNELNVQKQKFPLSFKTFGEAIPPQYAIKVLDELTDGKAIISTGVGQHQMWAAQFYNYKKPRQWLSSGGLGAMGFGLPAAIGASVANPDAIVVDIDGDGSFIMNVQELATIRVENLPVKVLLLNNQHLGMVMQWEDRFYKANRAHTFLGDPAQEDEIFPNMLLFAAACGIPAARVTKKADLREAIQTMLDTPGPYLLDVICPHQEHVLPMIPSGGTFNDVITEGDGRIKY
The experiment in a line: AHAS enzyme assay (expression in E. coli MF2000), wild type enzyme. The note with it: wild type (pAC201); Figures 4 and 5. The procedure: AHAS enzyme assay (expression in E. coli) - The site directed mutants, pAC224 and pAC225, are utilized as templates for the generation of an E. coli based expression system. The insensitivity to herbicide is tested when the higher plant gene of interest is expressed in a bacterial strain devoid of any endogenous AHAS activity. To this end, the Nco1/Pst1 fragment of wild type Arabidopsis AHAS (pAC301), the Trp574-Leu substitution (pAC224) and the Trp574 deletion (pAC225) are subcloned into the Nco1/Pst1 site of the E. coli expression vector, pKK233-2 (purchased from Pharmacia). This expression plasmid contains an IPTG inducible promoter as well as a transcription termination sequence. Both regions surround an Nco1, HindIII and Pstl linker sequence that allows proper orientation of the gene of interest in relation to the bacterial promoter. Subcloning and ligation of the respective Ncol/Pstl fragments into Ncol/Pstl digested pKK233-2 DNA (ampicillin resistance) is as previously described. […] This bacterial strain is devoid of endogenous AHAS activity. Therefore, growth on a minimal media lacking isoleucine and valine (the end products of amino acid biosynthetic pathway of which the AHAS enzyme is involved) in an MF2000 strain transformed with either pAC224 (Trp574-Leu) or pAC225 (Trp del) requires the expression and function of the Arabidopsis gene in E. coli. […]

Assay [2] has as its target T2, Arabidopsis AHAS Trp574 deletion (pAC225) (Arabidopsis thaliana, UniProt P17597, DEL574-574).
T2 construct: made in house; host or cells: E. coli MF2000, vector pKK233-2
The note with it: increasing concentrations of herbicide, Figures 4 and 5. The procedure: (§1) AHAS enzyme assay (expression in E. coli) - The site directed mutants, pAC224 and pAC225, are utilized as templates for the generation of an E. coli based expression system. The insensitivity to herbicide is tested when the higher plant gene of interest is expressed in a bacterial strain devoid of any endogenous AHAS activity. To this end, the Nco1/Pst1 fragment of wild type Arabidopsis AHAS (pAC301), the Trp574-Leu substitution (pAC224) and the Trp574 deletion (pAC225) are subcloned into the Nco1/Pst1 site of the E. coli expression vector, pKK233-2 (purchased from Pharmacia). This expression plasmid contains an IPTG inducible promoter as well as a transcription termination sequence. Both regions surround an Nco1, HindIII and Pstl linker sequence that allows proper orientation of the gene of interest in relation to the bacterial promoter. Subcloning and ligation of the respective Ncol/Pstl fragments into Ncol/Pstl digested pKK233-2 DNA (ampicillin resistance) is as previously described. The ligation reaction is transformed into the E. coli strain, MF2000 [ilvB800:mu-1, Bg132, ilvI15, thi-1, argE3, RPSL31, (ara-leu, iIvHI) 863, mtl-1, xyl-5 galK2, lacYI, recAl]. This bacterial strain is devoid of endogenous AHAS activity. […]

Assay [3] addresses T3, Arabidopsis AHAS Trp574-Leu substitution (pAC224) (Arabidopsis thaliana, UniProt P17597, W574L).
T3 construct: made in house; host or cells: E. coli MF2000, vector pKK233-2
The note with it: increasing concentrations of herbicide, Figures 4 and 5. The procedure: as §1

T3 sequence (P17597 56-670 W574L): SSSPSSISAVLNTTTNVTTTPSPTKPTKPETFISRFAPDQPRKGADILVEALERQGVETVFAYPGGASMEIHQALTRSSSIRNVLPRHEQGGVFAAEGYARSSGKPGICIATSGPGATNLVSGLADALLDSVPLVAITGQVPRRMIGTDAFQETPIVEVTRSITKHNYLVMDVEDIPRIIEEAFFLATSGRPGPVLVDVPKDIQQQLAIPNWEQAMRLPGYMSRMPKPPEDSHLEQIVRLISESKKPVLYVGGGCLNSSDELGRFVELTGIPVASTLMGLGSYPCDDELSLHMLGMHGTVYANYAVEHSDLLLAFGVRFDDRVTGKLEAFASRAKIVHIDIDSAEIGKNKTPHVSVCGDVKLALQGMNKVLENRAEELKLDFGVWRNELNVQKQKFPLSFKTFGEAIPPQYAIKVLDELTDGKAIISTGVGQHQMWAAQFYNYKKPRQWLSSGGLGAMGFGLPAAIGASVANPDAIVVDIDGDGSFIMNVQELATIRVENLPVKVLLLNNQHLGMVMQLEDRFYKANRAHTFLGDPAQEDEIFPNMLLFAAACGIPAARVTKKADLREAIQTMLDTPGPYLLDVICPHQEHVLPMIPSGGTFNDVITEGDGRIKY
T2 sequence (P17597 other isoform, or with tags, fused parts or gaps DEL574-574): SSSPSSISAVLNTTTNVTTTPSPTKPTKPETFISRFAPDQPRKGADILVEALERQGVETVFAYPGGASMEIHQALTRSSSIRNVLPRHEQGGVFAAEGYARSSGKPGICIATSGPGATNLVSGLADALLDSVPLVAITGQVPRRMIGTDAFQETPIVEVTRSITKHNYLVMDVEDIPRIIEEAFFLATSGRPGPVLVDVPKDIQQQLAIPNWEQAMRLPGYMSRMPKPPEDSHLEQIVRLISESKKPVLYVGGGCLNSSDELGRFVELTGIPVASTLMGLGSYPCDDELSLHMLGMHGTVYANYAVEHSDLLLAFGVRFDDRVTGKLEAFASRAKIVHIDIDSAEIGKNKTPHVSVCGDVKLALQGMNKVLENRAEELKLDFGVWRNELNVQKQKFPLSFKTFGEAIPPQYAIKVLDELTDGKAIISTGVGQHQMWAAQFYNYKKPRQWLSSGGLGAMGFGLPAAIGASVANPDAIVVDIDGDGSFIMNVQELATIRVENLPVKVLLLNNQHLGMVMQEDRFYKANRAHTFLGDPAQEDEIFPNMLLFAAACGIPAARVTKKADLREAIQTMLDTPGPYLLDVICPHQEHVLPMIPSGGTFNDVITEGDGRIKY

For the compound `CCc1cnc(C2=NC(C)(C(C)C)C(=O)N2)c(C(=O)O)c1` (stereo not drawn) [Pursuit®], the “sensitivity of AHAS enzyme to herbicide” value in assay [1] is “sensitive”; in assay [2], “insensitive”; in assay [3], “insensitive”.
